The target in assay [1] is T1, CRF2R (Homo sapiens, UniProt Q13324).
T1 sequence (Q13324 1-411): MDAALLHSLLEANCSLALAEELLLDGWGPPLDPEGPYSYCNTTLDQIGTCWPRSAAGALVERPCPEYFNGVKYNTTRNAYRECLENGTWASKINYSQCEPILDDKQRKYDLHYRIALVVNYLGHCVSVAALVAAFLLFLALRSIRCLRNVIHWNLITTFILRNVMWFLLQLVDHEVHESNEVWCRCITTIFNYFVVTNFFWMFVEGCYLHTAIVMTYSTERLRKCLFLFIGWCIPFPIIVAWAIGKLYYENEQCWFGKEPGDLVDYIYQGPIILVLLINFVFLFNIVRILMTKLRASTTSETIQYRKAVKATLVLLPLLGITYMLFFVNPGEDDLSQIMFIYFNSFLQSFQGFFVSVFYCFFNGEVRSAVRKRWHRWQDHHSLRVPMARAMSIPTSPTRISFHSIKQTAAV
Put plainly: CRF2R agonist activation (EC50 / Emax), called comparative CRF binding. The assay is classed as cell-based. To be noted: for Emax: read-out: CRF2R Emax. The method, boiled down: (§1)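 Cells expressing full-length human CRF1R or CRF2R were exposed to peptide or vehicle control, and receptor activation was gauged as cAMP induction. cAMP was measured in cell lysates or via a cAMP-responsive element driving a reporter gene such as luciferase, CAT, GFP or alkaline phosphatase.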

For assay [2], the target named is T2, CRF1R (Homo sapiens, UniProt P34998).
T2 sequence (P34998 24-415): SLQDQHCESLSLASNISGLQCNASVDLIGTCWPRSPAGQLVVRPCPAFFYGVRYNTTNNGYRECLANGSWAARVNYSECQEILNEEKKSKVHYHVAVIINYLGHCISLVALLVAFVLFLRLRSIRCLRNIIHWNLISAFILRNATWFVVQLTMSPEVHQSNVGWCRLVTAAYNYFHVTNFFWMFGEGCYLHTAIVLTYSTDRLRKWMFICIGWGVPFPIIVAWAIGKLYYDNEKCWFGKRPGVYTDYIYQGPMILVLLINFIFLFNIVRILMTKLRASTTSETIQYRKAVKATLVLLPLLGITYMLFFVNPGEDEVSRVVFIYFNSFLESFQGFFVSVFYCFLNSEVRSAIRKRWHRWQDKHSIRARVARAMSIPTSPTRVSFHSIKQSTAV
Put plainly: CRF1R agonist activation (EC50 / Emax), called comparative CRF binding. The assay is classed as cell-based. The following applies: for Emax: read-out: CRF1R Emax. The method, boiled down:
as §1

Peptide text beside a SMILES is read from it.

Regarding `CC[C@H](C)[C@H](NC(=O)[C@H](C)NC(=O)[C@H](CC(N)=O)NC(=O)[C@H](CCC(N)=O)NC(=O)[C@H](CCC(=O)O)NC(=O)[C@H](C)NC(=O)[C@H](CCCNC(=N)N)NC(=O)[C@H](CCC(=O)O)NC(=O)[C@H](CCCNC(=N)N)NC(=O)[C@H](CCC(N)=O)NC(=O)[C@H](CO)NC(=O)[C@H](CCC(N)=O)NC(=O)[C@@H](NC(=O)[C@H](CCCNC(=N)N)NC(=O)[C@H](C)NC(=O)[C@H](CC(C)C)NC(=O)[C@H](CCC(=O)O)NC(=O)[C@H](CC(C)C)NC(=O)[C@H](CC(C)C)NC(=O)[C@@H](NC(=O)[C@H](CCCNC(=N)N)NC(=O)[C@H](CC(C)C)NC(=O)[C@H](CC(C)C)NC(=O)[C@H](CCC(N)=O)NC(=O)[C@H](CC(C)C)NC(=O)[C@@H]1CCCN1C(=O)[C@H](CC(C)C)NC(=O)[C@H](CC(=O)O)NC(=O)[C@@H](NC(=O)[C@H](CO)NC(=O)[C@H](CC(C)C)NC(=O)[C@H](CO)NC(=O)[C@@H]1CCCN1C(=O)[C@H](CC(N)=O)NC(=O)[C@@H](N)CC(=O)O)[C@@H](C)CC)[C@@H](C)O)[C@@H](C)O)C(=O)N[C@H](C(=O)N[C@@H](Cc1ccccc1)C(=O)N[C@@H](C)C(=O)N[C@@H](CO)C(=O)N[C@H](C(N)=O)C(C)C)[C@@H](C)CC` [compound 176] (H-DNPSLSIDLPLQLLRTLLELARTQSQRERAEQNAIIFASV-NH2; N-terminus assumed), the Emax in assay [1] is 90.2%; in assay [2], 26.9%.
For `CC[C@H](C)[C@H](NC(=O)[C@H](C)NC(=O)[C@H](CC(N)=O)NC(=O)[C@H](CCC(N)=O)NC(=O)[C@H](CCC(=O)O)NC(=O)[C@H](C)NC(=O)[C@H](CCCNC(=N)N)NC(=O)[C@H](CCC(=O)O)NC(=O)[C@H](CCCNC(=N)N)NC(=O)[C@H](CCC(N)=O)NC(=O)[C@H](CO)NC(=O)[C@H](CCC(N)=O)NC(=O)[C@@H](NC(=O)[C@H](CCCNC(=N)N)NC(=O)[C@H](C)NC(=O)[C@H](CC(C)C)NC(=O)[C@H](CCC(=O)O)NC(=O)[C@H](CC(C)C)NC(=O)[C@H](CC(C)C)NC(=O)[C@@H](NC(=O)[C@H](CCCNC(=N)N)NC(=O)[C@H](CC(C)C)NC(=O)[C@H](CC(C)C)NC(=O)[C@H](Cc1ccc(O)cc1)NC(=O)[C@H](CC(C)C)NC(=O)[C@@H]1CCCN1C(=O)[C@H](CC(C)C)NC(=O)[C@H](CC(=O)O)NC(=O)[C@@H](NC(=O)[C@H](CO)NC(=O)[C@H](CC(C)C)NC(=O)[C@H](CO)NC(=O)[C@@H]1CCCN1C(=O)[C@H](CC(N)=O)NC(=O)[C@@H](N)CC(=O)O)[C@@H](C)CC)[C@@H](C)O)[C@@H](C)O)C(=O)N[C@H](C(=O)N[C@@H](Cc1ccccc1)C(=O)N[C@@H](C)C(=O)N[C@@H](CO)C(=O)N[C@H](C(N)=O)C(C)C)[C@@H](C)CC` [compound 177] (H-DNPSLSIDLPLYLLRTLLELARTQSQRERAEQNAIIFASV-NH2; N-terminus assumed), in that order: 97.7% and 69.2%.
The matching figures for `CC[C@H](C)[C@H](NC(=O)[C@H](C)NC(=O)[C@H](CC(N)=O)NC(=O)[C@H](CCC(N)=O)NC(=O)[C@H](CCC(=O)O)NC(=O)[C@H](C)NC(=O)[C@H](CCCNC(=N)N)NC(=O)[C@H](CCC(=O)O)NC(=O)[C@H](CCCNC(=N)N)NC(=O)[C@H](CCC(N)=O)NC(=O)[C@H](CO)NC(=O)[C@H](CCC(N)=O)NC(=O)[C@@H](NC(=O)[C@H](CCCNC(=N)N)NC(=O)[C@H](C)NC(=O)[C@H](CC(C)C)NC(=O)[C@H](CCC(=O)O)NC(=O)[C@H](CC(C)C)NC(=O)[C@H](CC(C)C)NC(=O)[C@@H](NC(=O)[C@H](CCCNC(=N)N)NC(=O)[C@H](CC(C)C)NC(=O)[C@H](CC(C)C)NC(=O)[C@H](Cc1ccccc1)NC(=O)[C@H](CC(C)C)NC(=O)[C@@H]1CCCN1C(=O)[C@H](CC(C)C)NC(=O)[C@H](CC(=O)O)NC(=O)[C@@H](NC(=O)[C@H](CO)NC(=O)[C@H](CC(C)C)NC(=O)[C@H](CO)NC(=O)[C@@H]1CCCN1C(=O)[C@H](CC(N)=O)NC(=O)[C@@H](N)CC(=O)O)[C@@H](C)CC)[C@@H](C)O)[C@@H](C)O)C(=O)N[C@H](C(=O)N[C@@H](Cc1ccccc1)C(=O)N[C@@H](C)C(=O)N[C@@H](CO)C(=O)N[C@H](C(N)=O)C(C)C)[C@@H](C)CC` [compound 178] (H-DNPSLSIDLPLFLLRTLLELARTQSQRERAEQNAIIFASV-NH2; N-terminus assumed): 96.5% and 55.7%.
On to `CC[C@H](C)[C@H](NC(=O)[C@H](C)NC(=O)[C@H](CC(N)=O)NC(=O)[C@H](CCC(N)=O)NC(=O)[C@H](CCC(=O)O)NC(=O)[C@H](C)NC(=O)[C@H](CCCNC(=N)N)NC(=O)[C@H](CCC(=O)O)NC(=O)[C@H](CCCNC(=N)N)NC(=O)[C@H](CCC(N)=O)NC(=O)[C@H](CO)NC(=O)[C@H](CCC(N)=O)NC(=O)[C@@H](NC(=O)[C@H](CCCNC(=N)N)NC(=O)[C@H](C)NC(=O)[C@H](CC(C)C)NC(=O)[C@H](CCC(=O)O)NC(=O)[C@H](CC(C)C)NC(=O)[C@H](CC(C)C)NC(=O)[C@@H](NC(=O)[C@H](CCCNC(=N)N)NC(=O)[C@H](CC(C)C)NC(=O)[C@H](CC(C)C)NC(=O)[C@H](Cc1c[nH]cn1)NC(=O)[C@H](CC(C)C)NC(=O)[C@@H]1CCCN1C(=O)[C@H](CC(C)C)NC(=O)[C@H](CC(=O)O)NC(=O)[C@@H](NC(=O)[C@H](CO)NC(=O)[C@H](CC(C)C)NC(=O)[C@H](CO)NC(=O)[C@@H]1CCCN1C(=O)[C@H](CC(N)=O)NC(=O)[C@@H](N)CC(=O)O)[C@@H](C)CC)[C@@H](C)O)[C@@H](C)O)C(=O)N[C@H](C(=O)N[C@@H](Cc1ccccc1)C(=O)N[C@@H](C)C(=O)N[C@@H](CO)C(=O)N[C@H](C(N)=O)C(C)C)[C@@H](C)CC` [compound 179] (H-DNPSLSIDLPLHLLRTLLELARTQSQRERAEQNAIIFASV-NH2; N-terminus assumed), for which the results for the Emax in assay [1] and in assay [2] were 92.5% and 78.9%, respectively.
Take `CC[C@H](C)[C@H](NC(=O)[C@H](C)NC(=O)[C@H](CC(N)=O)NC(=O)[C@H](CCC(N)=O)NC(=O)[C@H](CCC(=O)O)NC(=O)[C@H](C)NC(=O)[C@H](CCCNC(=N)N)NC(=O)[C@H](CCC(=O)O)NC(=O)[C@H](CCCNC(=N)N)NC(=O)[C@H](CCC(N)=O)NC(=O)[C@H](CO)NC(=O)[C@H](CCC(N)=O)NC(=O)[C@@H](NC(=O)[C@H](CCCNC(=N)N)NC(=O)[C@H](C)NC(=O)[C@H](CC(C)C)NC(=O)[C@H](CCC(=O)O)NC(=O)[C@H](CC(C)C)NC(=O)[C@H](CC(C)C)NC(=O)[C@@H](NC(=O)[C@H](CCCNC(=N)N)NC(=O)[C@H](CC(C)C)NC(=O)[C@H](CC(C)C)NC(=O)[C@H](CC(C)C)NC(=O)[C@H](Cc1ccccc1)NC(=O)[C@@H]1CCCN1C(=O)[C@H](CC(C)C)NC(=O)[C@H](CC(=O)O)NC(=O)[C@@H](NC(=O)[C@H](CO)NC(=O)[C@H](CC(C)C)NC(=O)[C@H](CO)NC(=O)[C@@H]1CCCN1C(=O)[C@H](CC(N)=O)NC(=O)[C@@H](N)CC(=O)O)[C@@H](C)CC)[C@@H](C)O)[C@@H](C)O)C(=O)N[C@H](C(=O)N[C@@H](Cc1ccccc1)C(=O)N[C@@H](C)C(=O)N[C@@H](CO)C(=O)N[C@H](C(N)=O)C(C)C)[C@@H](C)CC` [compound 180] (H-DNPSLSIDLPFLLLRTLLELARTQSQRERAEQNAIIFASV-NH2; N-terminus assumed): the EC50 in assay [1] (read-out: CRF2R EC50) is 3.14 nM; in assay [2] (read-out: CRF1R EC50) it was 125 nM. For the same compound, the Emax in assay [1] came to 95.7%; in assay [2] it was 99.3%.
Turning to `CC[C@H](C)[C@H](NC(=O)[C@H](C)NC(=O)[C@H](CC(N)=O)NC(=O)[C@H](CCC(N)=O)NC(=O)[C@H](CCC(=O)O)NC(=O)[C@H](C)NC(=O)[C@H](CCCNC(=N)N)NC(=O)[C@H](CCC(=O)O)NC(=O)[C@H](CCCNC(=N)N)NC(=O)[C@H](CCC(N)=O)NC(=O)[C@H](CO)NC(=O)[C@H](CCC(N)=O)NC(=O)[C@@H](NC(=O)[C@H](CCCNC(=N)N)NC(=O)[C@H](C)NC(=O)[C@H](CC(C)C)NC(=O)[C@H](CCC(=O)O)NC(=O)[C@H](CC(C)C)NC(=O)[C@H](CC(C)C)NC(=O)[C@@H](NC(=O)[C@H](CCCNC(=N)N)NC(=O)[C@H](CC(C)C)NC(=O)[C@H](CC(C)C)NC(=O)[C@@H](NC(=O)[C@H](Cc1ccccc1)NC(=O)[C@@H]1CCCN1C(=O)[C@H](CC(C)C)NC(=O)[C@H](CC(=O)O)NC(=O)[C@@H](NC(=O)[C@H](CO)NC(=O)[C@H](CC(C)C)NC(=O)[C@H](CO)NC(=O)[C@@H]1CCCN1C(=O)[C@H](CC(N)=O)NC(=O)[C@@H](N)CC(=O)O)[C@@H](C)CC)[C@@H](C)CC)[C@@H](C)O)[C@@H](C)O)C(=O)N[C@H](C(=O)N[C@@H](Cc1ccccc1)C(=O)N[C@@H](C)C(=O)N[C@@H](CO)C(=O)N[C@H](C(N)=O)C(C)C)[C@@H](C)CC` [compound 181] (H-DNPSLSIDLPFILLRTLLELARTQSQRERAEQNAIIFASV-NH2; N-terminus assumed), the Emax in assay [1] came out at 97.8%; in assay [2], 100%.

The record behind these values is patent publication US6936585B2, “Corticotropin releasing factor 2 receptor agonists” (priority 2002, dated 2005).
